Measured values reported in patent US9067918B2, “Crystalline forms of 2-(2-methylamino-pyrimidin-4-yl)-1H-indole-5-carboxylic acid [ (S)-1-carbamoyl-2-(phenyl-pyrimidin-2-yl-amino)-ethyl ]-amide” (Sanofi, priority 2011, dated 2015).

What was measured:
Format in all cases: physicochemical
[1] = Determination of solubility in a mixture of acetone and water (4:1, by volume); details: acetone/water 4:1 by volume
Experimental: For the determination of the solubility in a mixture of acetone and water (4:1, by volume), samples of 0.5 mg to 50 mg of the test substances were suspended in a defined amount of the solvent (800 mg to 1200 mg) in screw cap vials with a magnetic stirring bar, which were placed in a temperature-controlled multiple stirring device equipped for transmission measurement (Avantium Crystal 16). With stirring at 700 rpm, the vials were cooled from room temperature to 0° C. and then heated to 60° C. with a heating rate of 3° C./h, kept at 60° C. for 2 h and cooled again to 0° C. with a cooling rate of 3° C./h. By means of transmission measurement it was determined whether the sample was dissolved (100% transmission), or crystals were present. For polymorph 1, polymorph 2, hydrate 1 and hydrate 2 of compound I the following solubilities in a mixture of acetone and water (4:1, by volume) were determined.

Solubility (qualitative) = details: qualitative statement; for solubility compared with polymorph 1: solvent not stated
[2] = Dynamic vapor sorption (DVS), determination of hygroscopicity; details: for hygroscopicity, water uptake: at a high relative humidity of 80%; for weight increase in sorption step: 25° C.
Experimental: For the determination of the hygroscopicity, moisture sorption/desorption isotherms were recorded on a Surface Measurement Systems DVS-1 instrument. […] The data were evaluated with the software DVSWin V.2.15. In the DVS analysis of polymorph 1 and polymorph 2 of compound I, in the sorption steps of the two cycles the following weight increases were observed.

Thermogravimetry (TG) = details: for TG weight loss: until the melting point
Experimental: Thermogravimetric analyses were performed with a METTLER TGA851e instrument. 100 μl Al-crucibles with sealed lid and hole were used and the measurements performed in a nitrogen gas flow of 50 ml/min. The measured data were evaluated with the software STARe V8.10. TG measurements with infra-red (IR) spectroscopic analysis of volatiles were performed with a METTLER TGA851e instrument as described, which was coupled to a Thermo-Nicolet 380 FT-IR spectrometer equipped with a cell for gas phase measurements. The measured IR spectra were evaluated using the software OMNIC V.7.3. In the TG analyses of polymorph 1 and polymorph 2 of compound I until the melting point, insignificant weight losses of 0.2% and 0.7%, respectively, were observed. In the TG analysis of hydrate 1 of compound I, a gradual weight loss of 6.4% was observed between room temperature and 120° C. […] The observed weight loss corresponds to about 1.9 mol of water per mol of 2-(2-methylamino-pyrimidin-4-yl)-1H-indole-5-carboxylic acid [(S)-1-carbamoyl-2-(phenyl-pyrimidin-2-yl-amino)-ethyl]-amide. In the TG FT-IR analysis of hydrate 2 of compound I, a weight loss of 17-18% of water mainly in two steps was observed between room temperature and 140° C., which corresponds to about 6 mol of water per mol of 2-(2-methylamino-pyrimidin-4-yl)-1H-indole-5-carboxylic acid [(S)-1-carbamoyl-2-(phenyl-pyrimidin-2-yl-amino)-ethyl]-amide.

[3] = Maturation experiments (slurry conversion), relative stability of crystalline forms
Experimental: By maturation experiments (slurry conversion) at 20° C. the relative stability of polymorphs 1 and 2 and hydrate 1 was investigated.
A polymorph mixture of 81 mg (Mixture of Polymorph 1 and Polymorph 2), 83 mg of Polymorph 1 and 60 mg of hydrate 1 was prepared. The mixture was subjected to XRPD analysis to confirm the presence of all three polymorphs and then distributed into five capillaries. These samples were kept in suspension at 20° C. for five days. After X-ray powder diffraction measurement of the suspensions these were dried over night at 40° C. and <100 mbar and again subjected to X-ray diffraction. Maturation experiments (a) to (e) were performed under the specified conditions, starting with the polymorph mixture described above.

[4] = relative humidity 40%, first value (cycle 1)
[5] = relative humidity 40%, second value (cycle 2)
[6] = relative humidity 60%, first value (cycle 1)
[7] = relative humidity 60%, second value (cycle 2)
[8] = relative humidity 80%, first value (cycle 1)
[9] = relative humidity 80%, second value (cycle 2)
[10] = relative humidity 95%, first value (cycle 1)
[11] = relative humidity 95%, second value (cycle 2)

| solubility compared with polymorph 1 (Solubility (qualitative)) | hygroscopicity, water uptake [2] | weight increase in sorption step [2, 4] | weight increase in sorption step [2, 5] | weight increase in sorption step [2, 6] | weight increase in sorption step [2, 7] | weight increase in sorption step [2, 8] | weight increase in sorption step [2, 9] | weight increase in sorption step [2, 10] [%] | weight increase in sorption step [2, 11] [%] | TG weight loss (Thermogravimetry (TG)) [%] | other results | SMILES |
| --- | --- | --- | --- | --- | --- | --- | --- | --- | --- | --- | --- | --- |
| higher solubility than polymorph 1 | – | – | – | – | – | – | – | – | – | – | Solubility [g in 100 g of solvent] ([1]; 38.6° C.): 2.11 g in 100 g of solvent; Solubility [g in 100 g of solvent] ([1]; 49.7° C.): 3.39 g in 100 g of solvent; Solubility [g in 100 g of solvent] ([1]; 57.4° C.): 5.04 g in 100 g of solvent; hygroscopicity ([2]; qualitative statement): low hygroscopicity; TG weight loss (water) (Thermogravimetry (TG); between room temperature and 120° C.): 6.4% | CNc1nccc(-c2cc3cc(C(=O)N[C@@H](CN(c4ccccc4)c4ncccn4)C(N)=O)ccc3[nH]2)n1 [Hydrate 1, 2-(2-methylamino-pyrimidin-4-yl)-1H-indole-5-carboxylic acid [(S)-1-carbamoyl-2-(phenyl-pyrimidin-2-yl-amino)-ethyl]-amide dihydrate] |
| – | – | – | – | – | – | – | – | – | – | – | Solubility [g in 100 g of solvent] ([1]; 36.8° C.): 0.50 g in 100 g of solvent; Solubility [g in 100 g of solvent] ([1]; 46.1° C.): 1.02 g in 100 g of solvent; Solubility [g in 100 g of solvent] ([1]; 55.9° C.): 2.61 g in 100 g of solvent; TG weight loss (water) (Thermogravimetry (TG); between room temperature and 140° C., mainly in two steps): 17-18% | CNc1nccc(-c2cc3cc(C(=O)N[C@@H](CN(c4ccccc4)c4ncccn4)C(N)=O)ccc3[nH]2)n1 [Hydrate 2, 2-(2-methylamino-pyrimidin-4-yl)-1H-indole-5-carboxylic acid [(S)-1-carbamoyl-2-(phenyl-pyrimidin-2-yl-amino)-ethyl]-amide hexahydrate] |
| – | about 0.9% | 0.5%/0.5% | 0.5%/0.5% | 0.6%/0.6% | 0.6%/0.6% | 0.9%/0.9% | 0.9%/0.9% | 1.3 | 1.4 | 0.2 | Solubility [g in 100 g of solvent] ([1]; 36.9° C.): 0.43 g in 100 g of solvent; Solubility [g in 100 g of solvent] ([1]; 44.7° C.): 0.50 g in 100 g of solvent; Solubility [g in 100 g of solvent] ([1]; 60.0° C.): 0.85 g in 100 g of solvent; solubility in water (Solubility (qualitative)): low solubility in water; thermodynamic stability among the polymorphs ([3]; at temperatures above about 20° C., confirmed in phase conversion experiments): thermodynamically most stable polymorph; thermodynamic stability among polymorphs 1, 2 and hydrate 1 ([3]; maturation experiments (a) to (e) at 20° C.): thermodynamically most stable | CNc1nccc(-c2cc3cc(C(=O)N[C@@H](CN(c4ccccc4)c4ncccn4)C(N)=O)ccc3[nH]2)n1 [Polymorph 1, 2-(2-methylamino-pyrimidin-4-yl)-1H-indole-5-carboxylic acid [(S)-1-carbamoyl-2-(phenyl-pyrimidin-2-yl-amino)-ethyl]-amide] |
| higher solubility than polymorph 1 | about 0.4% | 0.2% | 0.0% | 0.3% | 0.1% | 0.4% | 0.3% | 0.8 | 0.6 | 0.7 | Solubility [g in 100 g of solvent] ([1]; 46.0° C.): 1.02 g in 100 g of solvent; Solubility [g in 100 g of solvent] ([1]; 57.5° C.): 2.48 g in 100 g of solvent | CNc1nccc(-c2cc3cc(C(=O)N[C@@H](CN(c4ccccc4)c4ncccn4)C(N)=O)ccc3[nH]2)n1 [Polymorph 2, 2-(2-methylamino-pyrimidin-4-yl)-1H-indole-5-carboxylic acid [(S)-1-carbamoyl-2-(phenyl-pyrimidin-2-yl-amino)-ethyl]-amide] |
